# Laboratory results: ChEMBL document CHEMBL5550216, “Discovery of Triazolopyrimidine Derivatives as Selective P2X3 Receptor Antagonists Binding to an Unprecedented Allosteric Site as Evidenced by Cryo-Electron Microscopy” (J Med Chem, 2024)
# Experiments:
# [1] = Metabolic stability in mouse liver microsomes assessed as compound remaining at 100 uM preincubated for 10 mins followed by NADPH addition and measured after 30 mins by LC-MS/MS analysis; type: ADME, Microsome; conditions: time 40 min, read-out: Stability
# [2] = Metabolic stability in rat liver microsomes assessed as compound remaining at 100 uM preincubated for 10 mins followed by NADPH addition and measured after 30 mins by LC-MS/MS analysis; type: ADME, Microsome; conditions: time 40 min, read-out: Stability
# [3] = Metabolic stability in human liver microsomes assessed as compound remaining at 100 uM preincubated for 10 mins followed by NADPH addition and measured after 30 mins by LC-MS/MS analysis; type: ADME, Microsome; conditions: time 40 min, read-out: Stability
# [4] = biological target: T1, P2X purinoceptor 7 (Homo sapiens, UniProt Q99572); test: Antagonist activity at human P2X7 receptor expressed in 1321N1 cells incubated for 30 mins in presence of Bz-ATP by Fluo-4 dye based microplate reader assay; type: cell-based
# T1 sequence (Q99572 whole entry): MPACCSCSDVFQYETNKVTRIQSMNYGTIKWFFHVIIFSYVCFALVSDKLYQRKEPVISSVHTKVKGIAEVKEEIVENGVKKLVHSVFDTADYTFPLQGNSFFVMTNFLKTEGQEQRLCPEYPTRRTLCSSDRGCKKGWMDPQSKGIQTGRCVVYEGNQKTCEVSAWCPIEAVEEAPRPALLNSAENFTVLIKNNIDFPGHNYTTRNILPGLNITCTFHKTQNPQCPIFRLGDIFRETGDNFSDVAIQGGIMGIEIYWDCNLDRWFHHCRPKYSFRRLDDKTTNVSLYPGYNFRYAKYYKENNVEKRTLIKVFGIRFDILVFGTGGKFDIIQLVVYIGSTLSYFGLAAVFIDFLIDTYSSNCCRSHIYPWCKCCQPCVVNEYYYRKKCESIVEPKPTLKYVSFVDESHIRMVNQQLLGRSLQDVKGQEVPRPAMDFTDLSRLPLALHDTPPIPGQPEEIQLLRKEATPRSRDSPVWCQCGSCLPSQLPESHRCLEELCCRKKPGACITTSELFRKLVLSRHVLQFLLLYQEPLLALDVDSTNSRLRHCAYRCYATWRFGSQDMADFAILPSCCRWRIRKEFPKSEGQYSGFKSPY
# [5] = biological target: T2, P2X purinoceptor 4 (Homo sapiens, UniProt Q99571); test: Antagonist activity at human P2X4 receptor expressed in 1321N1 cells incubated for 30 mins in presence of ATP by Fluo-4 dye based microplate reader assay; type: cell-based
# T2 sequence (Q99571 whole entry): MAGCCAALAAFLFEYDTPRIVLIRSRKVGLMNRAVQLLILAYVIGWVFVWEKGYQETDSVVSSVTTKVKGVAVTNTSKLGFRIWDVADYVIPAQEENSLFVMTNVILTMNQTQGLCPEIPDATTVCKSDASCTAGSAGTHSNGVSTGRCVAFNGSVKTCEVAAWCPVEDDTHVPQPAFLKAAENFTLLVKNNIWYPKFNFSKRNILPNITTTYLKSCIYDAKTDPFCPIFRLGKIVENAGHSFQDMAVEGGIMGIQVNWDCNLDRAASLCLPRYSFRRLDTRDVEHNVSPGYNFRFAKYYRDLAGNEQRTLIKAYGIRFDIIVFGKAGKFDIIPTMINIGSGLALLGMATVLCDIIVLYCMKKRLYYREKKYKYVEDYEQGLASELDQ
# [6] = biological target: T3, P2X purinoceptor 1 (Homo sapiens, UniProt P51575); test: Antagonist activity at human P2X1 receptor expressed in 1321N1 cells incubated for 30 mins in presence of ATP by Fluo-4 dye based microplate reader assay; type: cell-based
# T3 sequence (P51575 whole entry): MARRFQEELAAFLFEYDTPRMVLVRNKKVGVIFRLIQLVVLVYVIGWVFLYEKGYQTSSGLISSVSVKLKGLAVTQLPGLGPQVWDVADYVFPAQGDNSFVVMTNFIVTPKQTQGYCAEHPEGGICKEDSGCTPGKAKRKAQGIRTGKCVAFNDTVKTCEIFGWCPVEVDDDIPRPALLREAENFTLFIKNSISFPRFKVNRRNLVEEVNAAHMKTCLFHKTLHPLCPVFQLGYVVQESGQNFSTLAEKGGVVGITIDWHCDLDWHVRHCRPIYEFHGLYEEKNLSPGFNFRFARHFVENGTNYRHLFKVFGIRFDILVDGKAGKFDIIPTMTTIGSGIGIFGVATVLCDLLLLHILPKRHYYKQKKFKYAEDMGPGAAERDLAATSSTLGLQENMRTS
# [7] = Permeability of compound at 10 uM incubated for 4 hrs by PAMPA; type: ADME; conditions: read-out: permeability
# [8] = biological target: T4, P2X2/P2X3 heterotrimeric receptor (Homo sapiens, UniProt P56373+Q9UBL9); test: Antagonist activity at human P2X2/3 receptor expressed in HEK293 cells preincubated for 30 mins followed by alpha, beta me-ATP addition and measured for 10 mins by Fluo-8 dye based FLIPR assay
# T4 sequence (Q9UBL9 whole entry): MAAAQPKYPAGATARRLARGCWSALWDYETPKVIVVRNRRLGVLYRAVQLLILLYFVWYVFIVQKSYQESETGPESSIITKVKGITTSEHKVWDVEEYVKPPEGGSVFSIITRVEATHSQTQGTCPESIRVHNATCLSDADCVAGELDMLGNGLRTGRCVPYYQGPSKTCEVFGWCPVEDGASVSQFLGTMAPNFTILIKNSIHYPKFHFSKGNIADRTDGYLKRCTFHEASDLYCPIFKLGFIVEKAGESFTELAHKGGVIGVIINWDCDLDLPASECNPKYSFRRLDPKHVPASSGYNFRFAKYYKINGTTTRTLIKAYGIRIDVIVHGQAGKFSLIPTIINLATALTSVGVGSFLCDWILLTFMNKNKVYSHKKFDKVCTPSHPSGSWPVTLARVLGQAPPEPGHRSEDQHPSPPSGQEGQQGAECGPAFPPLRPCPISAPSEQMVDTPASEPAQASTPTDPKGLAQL
# T4 sequence (P56373 whole entry): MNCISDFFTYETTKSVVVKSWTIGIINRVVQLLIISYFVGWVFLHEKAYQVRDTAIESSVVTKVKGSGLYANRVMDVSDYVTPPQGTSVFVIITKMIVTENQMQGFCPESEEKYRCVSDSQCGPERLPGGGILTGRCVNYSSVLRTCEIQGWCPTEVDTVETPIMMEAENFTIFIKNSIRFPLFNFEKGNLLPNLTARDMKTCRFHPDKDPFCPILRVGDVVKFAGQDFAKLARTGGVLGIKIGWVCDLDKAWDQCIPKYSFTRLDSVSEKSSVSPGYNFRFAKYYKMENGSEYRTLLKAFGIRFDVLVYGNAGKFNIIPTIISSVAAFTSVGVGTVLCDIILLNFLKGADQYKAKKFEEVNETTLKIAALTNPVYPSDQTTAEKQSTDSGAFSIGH
# [9] = biological target: T5, P2X purinoceptor 3 (Homo sapiens, UniProt P56373); test: Antagonist activity at human P2X3R expressed in HEK293 cells incubated for 18 hrs by Fluo-4 dye based microplate reader assay
# T5 sequence (P56373 whole entry): T4 sequence (P56373 whole entry)
# [10] = biological target: T4, P2X2/P2X3 heterotrimeric receptor; test: Antagonist activity at human P2X2/3R expressed in HEK293 cells incubated for 18 hrs by Fluo-4 dye based microplate reader assay
Compound,"remaining at 0.5 h, 100 µM [1] [%]","remaining at 0.5 h, 100 µM [2] [%]","remaining at 0.5 h, 100 µM [3] [%]","Papp at 4 h, 10 µM [7] [nm/s]",also measured
C[C@@H](Nc1cc(N2CCN(C(N)=O)CC2)nc2nc(C3CC3)nn12)c1ccc2ccccc2c1,50.6,0.3,50.2,< 0.185,IC50 [4]: > 10 µM; IC50 [5]: > 10 µM; IC50 [6]: 4.28 µM
NC(=O)N1c2ccccc2C=Cc2ccccc21 [CARBAMAZEPINE],–,–,–,54.1,–
"CNC(=O)c1cc(F)c(-c2nc3cc(C)ccn3c2CC2CCCN(C(=O)OC)C2)c(F)c1 (single isomer, unassigned)",–,–,–,–,IC50 [8]: > 24 µM; IC50 [9]: 0.0155 µM; IC50 [10]: 5.06 µM

# More lines, main results first:
"remaining at 0.5 h, 100 µM [1] [%]","remaining at 0.5 h, 100 µM [2] [%]","remaining at 0.5 h, 100 µM [3] [%]","Papp at 4 h, 10 µM [7] [nm/s]",Compound,also measured
15.2,4.2,33.2,–,CC(=O)N1CCN(c2cc(N[C@H](C)c3ccc4ccccc4c3)n3nc(C4CCCC4)nc3n2)CC1,–
–,–,–,< 0.185,CC(C)(C)NCC(O)COc1cccc2c1CC(O)C(O)C2 (stereo not drawn) [NADOLOL],–
18,0.2,28.3,–,CC(=O)N1CCN(c2cc(N[C@H](C)c3ccc4ccccc4c3)n3nc(C4CCC4)nc3n2)CC1,–
